The values that follow come from PubChem BioAssay (NCI).

What all share (experiment): NCI anticancer screen, dose series, 48 h
Experiment [1] relates to 786-0 renal.
For experiment [2], the system named is A498 renal.
Experiment [3] deals with A549 NSCLC.
Experiment [4] deals with ACHN renal.
Experiment [5] deals with BT-549 breast.
The subject of experiment [6] is CAKI-1 renal.
Experiment [7] relates to CCRF-CEM leukemia.
In experiment [8] the test system is COLO 205 colon.
Experiment [9] deals with DU-145 prostate.
The subject of experiment [10] is EKVX NSCLC.
For experiment [11], the system named is HCC-2998 colon.
Experiment [12] deals with HCT-116 colon.
For experiment [13], the system named is HCT-15 colon.
The subject of experiment [14] is HL-60(TB) leukemia.
Experiment [15] concerns HOP-62 NSCLC.
In experiment [16] the test system is HOP-92 NSCLC.
The test system of experiment [17] is HS 578T breast.
The test system of experiment [18] is HT29 colon.
Experiment [19] concerns IGROV1 ovarian.
The test system of experiment [20] is K-562 leukemia.
The subject of experiment [21] is KM12 colon.
In experiment [22] the test system is LOX IMVI melanoma.
Experiment [23] has as its system M14 melanoma.
Experiment [24] deals with MALME-3M melanoma.
In experiment [25] the test system is MCF7 breast.
Experiment [26] has as its system MDA-MB-435.
The subject of experiment [27] is MDA-MB-468 breast.
Experiment [28] has as its system MOLT-4 leukemia.
In experiment [29] the test system is NCI-H226 lung.
Experiment [30] relates to NCI-H23 lung.
Experiment [31] concerns NCI-H460 lung.
The subject of experiment [32] is NCI-H522 lung.
Experiment [33] has as its system OVCAR-3 ovarian.
The subject of experiment [34] is OVCAR-4 ovarian.
The test system of experiment [35] is OVCAR-5 ovarian.
The test system of experiment [36] is OVCAR-8 ovarian.
For experiment [37], the system named is PC-3 prostate.
Experiment [38] has as its system RPMI-8226 leukemia.
The test system of experiment [39] is RXF 393 renal.
Experiment [40] has as its system SF-268 CNS.
In experiment [41] the test system is SF-295 CNS.
Experiment [42] concerns SF-539 CNS.
In experiment [43] the test system is SK-MEL-2 melanoma.
Experiment [44] deals with SK-MEL-28 melanoma.
Experiment [45] deals with SK-MEL-5 melanoma.
Experiment [46] has as its system SK-OV-3 ovarian.
The subject of experiment [47] is SN12C renal.
The subject of experiment [48] is SNB-75 CNS.
Experiment [49] concerns SW-620 colon.
Experiment [50] deals with TK-10 renal.
For experiment [51], the system named is U251 CNS.
Experiment [52] relates to UACC-257 melanoma.
Experiment [53] has as its system UACC-62 melanoma.

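Values below derive from 48-hour exposures of cells grown in 96-well plates, with endpoints linearly interpolated between the two concentrations bracketing the appropriate inhibition level. GI50 marks 50% less growth. TGI is the concentration that stops growth completely.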

For the molecule `C=C1CC[C@@H]2[C@]3(C)COC(c4cn[nH]c4-c4cccc(Cl)c4)O[C@@H]3CC[C@@]2(C)[C@@H]1C/C=C1/C(=O)OCC1O` (stereo partly specified), the GI50 in experiment [1] is 3.36 µM; in experiment [2], 18.5 µM; in experiment [3], 9.73 µM; in [4], 2.47 µM; in [5] it was 2.36 µM; in [6], 4 µM. The GI50 in [7] is 2.7 µM; in experiment [8], 4.85 µM; in [9], 5.01 µM; in [10] it was 3.68 µM; in experiment [11] it was 3.49 µM; in [12] it was 1.84 µM. Also, the GI50 in [13] is 1.79 µM; in experiment [14], 2.91 µM; in experiment [15], 15.3 µM; in experiment [16] it was 4.29 µM; in experiment [17], 9.04 µM; in experiment [18], 2.7 µM. In addition, the GI50 in [19] was 4.14 µM; in experiment [20], 2.41 µM; in [21] it was 3.29 µM; in experiment [22] it was 1.44 µM; in experiment [23], 2.19 µM; in experiment [24], 1.84 µM. Moreover, the GI50 in experiment [25] is 2.06 µM; in [26] it was 2.47 µM; in [27], 1.88 µM; in experiment [28], 3.83 µM; in experiment [29], 1.66 µM; in experiment [30], 4.36 µM. In addition, the GI50 in [31] is 8.87 µM; in experiment [32], 1.75 µM; in [33] it was 1.93 µM; in experiment [34], 4.4 µM; in experiment [35], 3.63 µM; in experiment [36] it was 2.39 µM. The GI50 is 4.08 µM in experiment [37]; 2.25 µM in experiment [38]; 1.73 µM in experiment [39]; 17.3 µM in [40]; 4.27 µM in experiment [41]; 1.77 µM in [42]. Further, the GI50 was 2.71 µM in [43]; 1.98 µM in experiment [44]; 2.27 µM in [45]; 16 µM in experiment [46]; 2.94 µM in [47]; 2.41 µM in [48]. Further, the GI50 is 2.35 µM in experiment [49]; 12.4 µM in experiment [50]; 2.15 µM in experiment [51]; 11.2 µM in experiment [52]; 1.69 µM in [53]. Further, the TGI worked out at 11.7 µM in experiment [1]; 32.6 µM in experiment [2]; 30.4 µM in [3]; 6.95 µM in experiment [4]; 6.03 µM in [5]; 14.6 µM in experiment [6]. For the same molecule, the TGI worked out at 11.4 µM in experiment [7]; 19.5 µM in [8]; 19.5 µM in experiment [9]; 13.9 µM in experiment [10]; 11.5 µM in experiment [11]; 3.93 µM in [12]. Further, the TGI was 3.81 µM in [13]; 16.3 µM in [14]; 32 µM in experiment [15]; 22.3 µM in experiment [16]; 62.7 µM in experiment [17]; 6.8 µM in [18]. For the same molecule, the TGI in experiment [19] stood at 15.8 µM; in experiment [20], 10.5 µM; in [21], 13.1 µM; in [22], 2.83 µM; in [23], 5.88 µM; in experiment [24], 4.26 µM. For the same molecule, the TGI in [25] stood at 9.16 µM; in experiment [26] it was 7.62 µM; in experiment [27], 4.97 µM; in [28], 18.2 µM; in experiment [29] it was 3.21 µM; in experiment [30], 15.9 µM. Besides, the TGI in experiment [31] turned out to be 25.6 µM; in experiment [32], 3.59 µM; in [33], 3.77 µM; in [34], 45.7 µM; in experiment [35], 14 µM; in experiment [36], 7.7 µM. In addition, the TGI in experiment [37] came to 30.7 µM; in experiment [38], 7.02 µM; in [39], 3.24 µM; in experiment [40], 41.4 µM; in experiment [41], 16.1 µM; in experiment [42], 3.36 µM. In addition, the TGI in experiment [43] was found to be 8.53 µM; in experiment [44] it was 4.05 µM; in experiment [45], 5.37 µM; in experiment [46] it was 35.1 µM; in experiment [47], 10.5 µM; in [48], 12.3 µM. The TGI in experiment [49] came out at 5.96 µM; in experiment [50], 25.7 µM; in [51] it was 5.29 µM; in [52] it was 27 µM; in experiment [53], 3.62 µM.

Turning to `CN(C)CCCOc1c2ccc(Cl)cc2nc2c1oc1ccccc12`, in [27], the GI50 was 1.95 µM and the TGI stood at 5.07 µM.

In the case of `C=C1C(=O)O[C@H]2[C@H]1CC/C(C=Nc1c(N)cc(C(F)(F)F)cc1C(F)(F)F)=C\CC[C@@]1(C)O[C@@H]21`, in [27], the GI50 is 1.5 µM and the TGI came to 3.21 µM.

As to `Cn1cc(C2=C(c3c4n(c5ccccc35)CCC(CN)C4)C(=O)NC2=O)c2ccccc21` (stereo unspecified), in experiment [27], the GI50 is 2.91 µM and the TGI was 6.89 µM.

Turning to `C=C1[C@@H](C)C2[C@H](Cc3ccccc3)NC(=O)[C@]23[C@H](OC(C)=O)/C=C/[C@@](C)(O)C(=O)[C@@H](C)C/C=C/[C@H]3[C@@H]1O` (stereo partly specified), in experiment [27], the GI50 is 0.0389 µM and the TGI is 12.7 µM.

Turning to `N#Cc1c(N2CCOCC2)nc(=S)[nH]c1-c1ccccc1`, in experiment [27], the GI50 is 25.8 µM and the TGI is greater than 100 µM.
